Article PMC10952895, “Assessment of the potential of novel and classical opioids to induce respiratory depression in mice” (British Journal of Pharmacology, 2023)

Test system: T1, μ-receptor (μ-receptor-RLuc8)
T1 construct: gene Oprm1; construct from Gillis, Gondin et al. 2020
Assay: BRET, Nb33-Venus recruitment to μ-receptor-RLuc8 in HEK293 cells
Assay type: cell-based
Settings: agonist; 10 min after addition, normalised to DAMGO

Structure (SMILES)	pEC50
COc1ccc2c3c1O[C@H]1C(=O)CC[C@@]4(O)[C@@H](C2)N(C)CC[C@]314 [oxycodone]	5.8 ± 0.05
CN1c2ccccc2C(NCCCCCCC(=O)O)c2ccc(Cl)cc2S1(=O)=O (stereo not drawn) [tianeptine]	5.8 ± 0.07
COc1ccsc1CNCC[C@@]1(c2ccccn2)CCOC2(CCCC2)C1 [oliceridine]	6.8 ± 0.1
